Here are results for three molecules from ChEMBL document CHEMBL1144455, “A small molecule-kinase interaction map for clinical kinase inhibitors” (Nat Biotechnol, 2005).

The target of experiment [1] is Mitogen-activated protein kinase kinase kinase kinase 5 (Homo sapiens, UniProt Q9Y4K4).
Experiment [2] concerns the target T1, Serine/threonine-protein kinase 3 (Mus musculus, UniProt Q9JI10).
T1 sequence (Q9JI10 whole entry): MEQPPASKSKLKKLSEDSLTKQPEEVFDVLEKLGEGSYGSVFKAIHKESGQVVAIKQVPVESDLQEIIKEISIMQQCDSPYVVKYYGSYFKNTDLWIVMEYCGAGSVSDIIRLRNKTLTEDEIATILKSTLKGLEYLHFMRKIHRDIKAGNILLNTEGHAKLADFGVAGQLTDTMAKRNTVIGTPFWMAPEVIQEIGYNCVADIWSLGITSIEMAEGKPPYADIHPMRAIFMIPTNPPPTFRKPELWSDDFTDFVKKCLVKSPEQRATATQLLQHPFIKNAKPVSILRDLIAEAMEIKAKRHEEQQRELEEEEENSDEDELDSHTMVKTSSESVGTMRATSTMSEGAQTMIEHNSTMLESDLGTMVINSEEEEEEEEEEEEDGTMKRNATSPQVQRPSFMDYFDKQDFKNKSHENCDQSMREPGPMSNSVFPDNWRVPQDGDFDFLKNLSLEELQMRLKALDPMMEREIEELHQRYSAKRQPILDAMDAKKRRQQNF

The target of a further experiment is Activated CDC42 kinase 1 (Homo sapiens, UniProt Q07912).
Activated CDC42 kinase 1, sequence (Q07912 whole entry): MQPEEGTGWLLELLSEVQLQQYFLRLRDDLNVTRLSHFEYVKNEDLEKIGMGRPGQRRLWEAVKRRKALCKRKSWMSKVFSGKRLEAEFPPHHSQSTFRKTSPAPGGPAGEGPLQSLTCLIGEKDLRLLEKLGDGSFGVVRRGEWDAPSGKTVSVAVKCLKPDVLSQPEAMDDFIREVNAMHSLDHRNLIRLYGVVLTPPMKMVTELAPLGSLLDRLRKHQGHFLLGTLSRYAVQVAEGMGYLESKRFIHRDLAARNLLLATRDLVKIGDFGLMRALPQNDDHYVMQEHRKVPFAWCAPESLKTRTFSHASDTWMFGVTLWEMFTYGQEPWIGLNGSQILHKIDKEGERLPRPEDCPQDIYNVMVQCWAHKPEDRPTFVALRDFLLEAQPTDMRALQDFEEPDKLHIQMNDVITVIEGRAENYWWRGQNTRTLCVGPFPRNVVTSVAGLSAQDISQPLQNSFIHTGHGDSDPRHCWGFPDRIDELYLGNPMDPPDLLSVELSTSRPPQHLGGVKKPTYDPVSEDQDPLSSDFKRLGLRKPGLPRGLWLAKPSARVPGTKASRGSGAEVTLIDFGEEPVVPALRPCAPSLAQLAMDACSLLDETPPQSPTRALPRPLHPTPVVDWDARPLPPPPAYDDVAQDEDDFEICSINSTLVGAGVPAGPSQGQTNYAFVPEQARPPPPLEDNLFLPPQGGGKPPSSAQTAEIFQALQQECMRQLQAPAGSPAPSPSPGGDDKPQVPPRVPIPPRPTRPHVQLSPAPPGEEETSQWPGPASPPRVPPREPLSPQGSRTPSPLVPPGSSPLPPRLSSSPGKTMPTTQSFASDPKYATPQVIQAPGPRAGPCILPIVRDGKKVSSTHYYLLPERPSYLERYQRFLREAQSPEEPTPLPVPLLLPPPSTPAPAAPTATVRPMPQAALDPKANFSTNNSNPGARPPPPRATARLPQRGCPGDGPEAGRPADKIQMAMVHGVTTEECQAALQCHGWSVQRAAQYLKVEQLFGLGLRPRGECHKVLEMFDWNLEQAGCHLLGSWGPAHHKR
For another experiment, the target named is Ephrin type-A receptor 5 (Homo sapiens, UniProt P54756).
Experiment [3] addresses Dual specificity protein kinase CLK2 (Homo sapiens, UniProt P49760).
Experiment [4] concerns the target Tyrosine-protein kinase Fer (Homo sapiens, UniProt P16591).
Experiment [5] deals with AP2-associated protein kinase 1 (Homo sapiens, UniProt Q2M2I8).
AP2-associated protein kinase 1, sequence (Q2M2I8 whole entry): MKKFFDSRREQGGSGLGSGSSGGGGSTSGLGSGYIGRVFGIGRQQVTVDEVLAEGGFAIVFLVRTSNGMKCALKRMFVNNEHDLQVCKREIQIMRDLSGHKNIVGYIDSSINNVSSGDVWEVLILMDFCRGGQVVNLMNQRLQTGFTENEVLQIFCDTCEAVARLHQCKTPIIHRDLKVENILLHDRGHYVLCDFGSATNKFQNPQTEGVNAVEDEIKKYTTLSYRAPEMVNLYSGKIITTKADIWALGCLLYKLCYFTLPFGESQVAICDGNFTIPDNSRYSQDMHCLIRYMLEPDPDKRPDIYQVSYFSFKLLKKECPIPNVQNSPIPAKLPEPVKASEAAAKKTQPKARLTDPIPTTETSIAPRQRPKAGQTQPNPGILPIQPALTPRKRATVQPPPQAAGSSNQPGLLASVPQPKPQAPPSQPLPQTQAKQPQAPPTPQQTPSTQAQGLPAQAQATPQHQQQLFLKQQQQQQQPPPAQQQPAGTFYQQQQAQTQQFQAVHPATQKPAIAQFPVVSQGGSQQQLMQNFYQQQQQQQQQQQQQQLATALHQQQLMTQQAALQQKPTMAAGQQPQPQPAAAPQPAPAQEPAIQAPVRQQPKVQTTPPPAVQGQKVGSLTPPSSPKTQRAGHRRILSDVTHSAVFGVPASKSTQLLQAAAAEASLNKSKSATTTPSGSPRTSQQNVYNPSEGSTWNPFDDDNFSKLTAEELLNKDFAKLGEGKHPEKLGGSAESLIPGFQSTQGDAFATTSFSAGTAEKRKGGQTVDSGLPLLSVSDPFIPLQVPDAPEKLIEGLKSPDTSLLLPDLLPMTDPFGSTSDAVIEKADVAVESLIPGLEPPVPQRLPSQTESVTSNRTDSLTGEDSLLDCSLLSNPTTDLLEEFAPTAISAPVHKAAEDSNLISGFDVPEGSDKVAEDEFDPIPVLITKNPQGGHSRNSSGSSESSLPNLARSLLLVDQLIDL
In experiment [6] the target is Tyrosine-protein kinase JAK2 (Homo sapiens, UniProt O60674).
For experiment [7], the target named is Tyrosine-protein kinase CSK (Homo sapiens, UniProt P41240).
In experiment [8] the target is Receptor tyrosine-protein kinase erbB-2 (Homo sapiens, UniProt P04626).
For experiment [9], the target named is Serine/threonine-protein kinase PAK 1 (Homo sapiens, UniProt Q13153).
Experiment [10] deals with Mitogen-activated protein kinase 10 (Homo sapiens, UniProt P53779).
Mitogen-activated protein kinase 10, sequence (P53779 whole entry): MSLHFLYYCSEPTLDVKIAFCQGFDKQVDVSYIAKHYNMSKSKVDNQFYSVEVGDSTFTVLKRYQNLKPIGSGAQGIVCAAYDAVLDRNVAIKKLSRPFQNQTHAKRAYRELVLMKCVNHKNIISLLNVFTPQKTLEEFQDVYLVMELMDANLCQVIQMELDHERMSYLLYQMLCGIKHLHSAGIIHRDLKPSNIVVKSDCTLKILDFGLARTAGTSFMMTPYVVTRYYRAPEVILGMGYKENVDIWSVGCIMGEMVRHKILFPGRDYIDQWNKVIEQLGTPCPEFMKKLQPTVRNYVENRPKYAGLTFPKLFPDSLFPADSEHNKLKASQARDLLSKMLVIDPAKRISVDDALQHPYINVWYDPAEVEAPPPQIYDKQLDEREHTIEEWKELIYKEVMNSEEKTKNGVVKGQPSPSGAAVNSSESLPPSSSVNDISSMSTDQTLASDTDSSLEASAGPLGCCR
Experiment [11] has as its target T2, Serine/threonine-protein kinase ULK3 (Mus musculus, UniProt Q3U3Q1).
T2 sequence (Q3U3Q1 whole entry): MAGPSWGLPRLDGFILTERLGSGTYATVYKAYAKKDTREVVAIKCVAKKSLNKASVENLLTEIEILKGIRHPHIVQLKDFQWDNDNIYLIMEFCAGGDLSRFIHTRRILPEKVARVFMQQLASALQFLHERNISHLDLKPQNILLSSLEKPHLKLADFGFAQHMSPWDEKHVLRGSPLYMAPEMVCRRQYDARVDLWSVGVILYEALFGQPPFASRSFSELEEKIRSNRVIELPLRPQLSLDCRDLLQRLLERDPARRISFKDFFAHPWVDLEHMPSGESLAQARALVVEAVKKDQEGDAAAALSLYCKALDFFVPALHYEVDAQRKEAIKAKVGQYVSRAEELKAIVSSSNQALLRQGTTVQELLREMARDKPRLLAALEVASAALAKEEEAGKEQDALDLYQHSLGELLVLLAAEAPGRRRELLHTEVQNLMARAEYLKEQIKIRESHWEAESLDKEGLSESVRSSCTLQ

Experiment [12] concerns the target MAP kinase-interacting serine/threonine-protein kinase 2 (Homo sapiens, UniProt Q9HBH9).
For experiment [13], the target named is Dual specificity protein kinase CLK4 (Homo sapiens, UniProt Q9HAZ1).
Dual specificity protein kinase CLK4, sequence (Q9HAZ1 whole entry): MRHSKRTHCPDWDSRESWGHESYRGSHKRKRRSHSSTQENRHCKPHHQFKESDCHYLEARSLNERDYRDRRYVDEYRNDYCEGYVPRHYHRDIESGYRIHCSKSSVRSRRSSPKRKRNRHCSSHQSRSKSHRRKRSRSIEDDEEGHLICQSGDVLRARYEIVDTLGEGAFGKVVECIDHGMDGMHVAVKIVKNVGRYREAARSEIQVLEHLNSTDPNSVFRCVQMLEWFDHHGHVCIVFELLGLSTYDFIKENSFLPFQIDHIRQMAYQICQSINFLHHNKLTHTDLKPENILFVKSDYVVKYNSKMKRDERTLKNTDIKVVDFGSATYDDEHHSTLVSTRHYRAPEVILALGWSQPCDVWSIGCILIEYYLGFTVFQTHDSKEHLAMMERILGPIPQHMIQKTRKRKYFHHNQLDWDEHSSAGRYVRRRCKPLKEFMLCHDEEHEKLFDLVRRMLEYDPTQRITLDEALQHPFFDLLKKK
Experiment [14] has as its target Calcium/calmodulin-dependent protein kinase kinase 2 (Homo sapiens, UniProt Q96RR4).
For experiment [15], the target named is T3, Serine/threonine-protein kinase PLK4 (Homo sapiens, UniProt O00444).
T3 sequence (O00444 whole entry): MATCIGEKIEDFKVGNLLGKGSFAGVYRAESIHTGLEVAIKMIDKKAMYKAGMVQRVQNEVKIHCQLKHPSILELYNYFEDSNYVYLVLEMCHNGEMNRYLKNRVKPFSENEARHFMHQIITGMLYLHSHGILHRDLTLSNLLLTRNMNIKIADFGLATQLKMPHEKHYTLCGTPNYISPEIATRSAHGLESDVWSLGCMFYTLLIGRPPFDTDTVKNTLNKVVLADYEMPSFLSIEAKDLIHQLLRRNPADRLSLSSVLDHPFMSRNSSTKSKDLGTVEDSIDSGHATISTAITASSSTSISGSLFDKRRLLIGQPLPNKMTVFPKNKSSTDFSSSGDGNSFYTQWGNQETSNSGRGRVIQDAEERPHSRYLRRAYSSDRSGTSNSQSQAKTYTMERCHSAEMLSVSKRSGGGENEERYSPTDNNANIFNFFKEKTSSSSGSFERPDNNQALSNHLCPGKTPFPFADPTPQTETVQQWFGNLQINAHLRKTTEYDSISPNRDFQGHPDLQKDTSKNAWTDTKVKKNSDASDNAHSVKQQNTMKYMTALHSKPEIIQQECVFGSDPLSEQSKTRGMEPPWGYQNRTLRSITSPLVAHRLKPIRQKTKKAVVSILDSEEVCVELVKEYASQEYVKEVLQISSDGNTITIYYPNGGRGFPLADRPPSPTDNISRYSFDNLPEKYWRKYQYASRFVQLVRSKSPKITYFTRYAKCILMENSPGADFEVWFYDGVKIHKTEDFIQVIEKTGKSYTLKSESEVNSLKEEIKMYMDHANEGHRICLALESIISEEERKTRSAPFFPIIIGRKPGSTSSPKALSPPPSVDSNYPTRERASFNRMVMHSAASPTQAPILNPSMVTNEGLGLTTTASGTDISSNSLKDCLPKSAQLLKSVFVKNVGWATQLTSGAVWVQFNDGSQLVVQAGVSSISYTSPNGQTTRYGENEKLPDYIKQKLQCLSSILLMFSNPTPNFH

Experiment [16] concerns the target Calcium/calmodulin-dependent protein kinase type 1 (Homo sapiens, UniProt Q14012).
The target in experiment [17] is Death-associated protein kinase 2 (Homo sapiens, UniProt Q9UIK4).
Experiment [18] addresses Death-associated protein kinase 3 (Homo sapiens, UniProt O43293).

Dual specificity protein kinase CLK2, sequence (P49760 whole entry): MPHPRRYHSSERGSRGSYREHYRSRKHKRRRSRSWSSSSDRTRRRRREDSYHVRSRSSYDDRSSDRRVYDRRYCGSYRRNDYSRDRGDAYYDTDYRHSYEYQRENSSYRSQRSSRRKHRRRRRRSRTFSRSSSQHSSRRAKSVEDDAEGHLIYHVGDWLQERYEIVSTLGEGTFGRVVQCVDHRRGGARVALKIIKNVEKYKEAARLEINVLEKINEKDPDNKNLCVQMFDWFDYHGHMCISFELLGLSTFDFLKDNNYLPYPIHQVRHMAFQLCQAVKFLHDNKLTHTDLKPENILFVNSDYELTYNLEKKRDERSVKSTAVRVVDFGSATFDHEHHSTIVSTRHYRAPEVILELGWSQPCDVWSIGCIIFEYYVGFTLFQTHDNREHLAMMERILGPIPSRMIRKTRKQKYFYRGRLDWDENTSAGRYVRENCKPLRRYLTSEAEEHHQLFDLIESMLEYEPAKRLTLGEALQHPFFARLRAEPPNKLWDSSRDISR
Death-associated protein kinase 3, sequence (O43293 whole entry): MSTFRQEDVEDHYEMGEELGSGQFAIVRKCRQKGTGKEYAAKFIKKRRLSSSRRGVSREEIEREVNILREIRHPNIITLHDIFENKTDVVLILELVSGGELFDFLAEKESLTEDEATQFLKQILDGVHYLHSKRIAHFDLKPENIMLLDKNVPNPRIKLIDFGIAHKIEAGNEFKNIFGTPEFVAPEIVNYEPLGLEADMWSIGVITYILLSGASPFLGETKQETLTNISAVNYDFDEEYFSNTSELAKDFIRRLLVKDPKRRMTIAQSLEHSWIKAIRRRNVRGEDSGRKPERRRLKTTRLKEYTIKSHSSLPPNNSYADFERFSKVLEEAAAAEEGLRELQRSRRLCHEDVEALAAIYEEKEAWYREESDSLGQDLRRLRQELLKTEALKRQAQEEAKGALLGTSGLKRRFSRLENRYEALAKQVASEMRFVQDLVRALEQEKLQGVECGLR
Tyrosine-protein kinase Fer, sequence (P16591 whole entry): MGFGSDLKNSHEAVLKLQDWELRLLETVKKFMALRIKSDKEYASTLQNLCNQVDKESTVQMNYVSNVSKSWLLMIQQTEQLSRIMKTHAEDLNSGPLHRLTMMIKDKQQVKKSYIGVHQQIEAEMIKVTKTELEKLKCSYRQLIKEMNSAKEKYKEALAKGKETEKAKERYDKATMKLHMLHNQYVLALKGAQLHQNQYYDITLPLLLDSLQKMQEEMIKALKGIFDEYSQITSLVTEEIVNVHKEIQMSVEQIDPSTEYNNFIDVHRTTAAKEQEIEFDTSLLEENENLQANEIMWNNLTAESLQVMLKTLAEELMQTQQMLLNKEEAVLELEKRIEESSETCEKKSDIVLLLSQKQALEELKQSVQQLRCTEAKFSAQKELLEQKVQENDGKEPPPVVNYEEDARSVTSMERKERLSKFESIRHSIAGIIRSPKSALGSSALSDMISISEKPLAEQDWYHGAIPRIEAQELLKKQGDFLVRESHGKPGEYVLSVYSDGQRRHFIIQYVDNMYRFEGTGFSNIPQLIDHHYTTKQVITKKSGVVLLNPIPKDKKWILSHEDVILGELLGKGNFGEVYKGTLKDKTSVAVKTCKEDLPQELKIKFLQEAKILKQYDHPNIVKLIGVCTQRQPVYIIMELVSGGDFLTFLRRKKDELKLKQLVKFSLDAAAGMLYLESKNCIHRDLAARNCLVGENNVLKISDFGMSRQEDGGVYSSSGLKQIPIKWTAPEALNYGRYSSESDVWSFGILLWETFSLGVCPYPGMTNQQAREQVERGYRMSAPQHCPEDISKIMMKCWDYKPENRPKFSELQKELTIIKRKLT

Broadly, the Kd is the constant that tells how readily two partners part at equilibrium. Consider `CCOc1cc2ncc(C#N)c(Nc3ccc(F)c(Cl)c3)c2cc1NC(=O)/C=C/CN(C)C` [PELITINIB], for which the Kd is 3.7 nM in [1]; 1100 nM in experiment [2]; 890 nM at Activated CDC42 kinase 1; 710 nM at Ephrin type-A receptor 5; 700 nM in experiment [3]; 250 nM in experiment [4]. The Kd in experiment [5] worked out at 2300 nM; in experiment [6] it was 2000 nM; in experiment [7], 2300 nM; in [8] it was 77 nM; in experiment [9], 2100 nM.
In the case of `Oc1ccc(-c2nc(-c3ccc(F)cc3)c(-c3ccncc3)[nH]2)cc1` [SB-202190], the Kd in experiment [10] stood at 51 nM.
Consider `Oc1c2ccccc2c2c3c(cccc13)N=N2` [SP-600125], for which the Kd in experiment [11] is 680 nM; in [2], 220 nM; in experiment [12], 1000 nM; in [13] it was 260 nM; in experiment [14], 7500 nM; in experiment [3], 300 nM. For the same molecule, the Kd in experiment [15] came out at 770 nM; in experiment [5] it was 35 nM; in experiment [16], 4100 nM; in experiment [17], 610 nM; in [18] it was 410 nM.
